Like-named read-outs stand apart in the source and are kept apart here.

As a reminder, the IC50 is the concentration at which inhibition is half-maximal.

The target in experiment [1] is HA-GST-Rheb (GTP-γ-S loaded) activating mTORC1 (Homo sapiens (Human), UniProt Q15382). The experiment can be described thus: Rheb-dependent in vitro kinase assay (Rheb-IVK; LanthaScreen or Western readout). The format is biochemical.
Another experiment has as its target Rheb (Homo sapiens (Human), UniProt Q15382). Kind of experiment: Affinity Selection Mass Spectrometry (ASMS). Conditions: affinity (R3/R0) in Affinity Selection Mass Spectrometry assay. The format is binding. The procedure: Method 2 (Affinity Selection Mass Spectrometry
Protein: Rheb (19 KDa) in the following buffer: 20 mM Tris, pH 8.0, 200 mM NaCl, 2 mM DTT, 5 mM MgCl2 was prepared as under.
Human Rheb protein (I-169) was purified from BL21 (DE3) E. coli using a His-Smt-Rheb expression vector. The cell paste was lysed in lysis buffer (50 mM HEPES pH 7.5, 0.5 M NaCl, 5% Glycerol, 1% CHAPS, EDTA free protease inhibitor tablets, lysozyme to 1 mg/mL, benzonase 250U), sonicated, and purified on a HiTrap Ni Chelating Column (GE Healthcare) using the following buffer: 50 mM HEPES pH 7.5, 0.5 M NaCl, 5% Glycerol, and imidazole increasing in concentration from 5 mM to 500 mM. The His-Smt tag was cleaved using a U1p1 enzyme and dialyzed into 50 mM HEPES pH 7.5, 0.5 M NaCl, 5% Glycerol. The resultant protein was again purified on a Ni Chelating column to remove the U1p1 enzyme and His-Smt tag and then purified by size exclusion chromatography on a Sephacryl S-100 26/60 column into the following final buffer: 20 mM NaPhos pH 7.0, 100 mM NaCl, 5 mM MgCl2, 2 mM TCEP.
Concentrations: 60 μM Rheb, 180 μM GDP and 2 μM of each compound,
Ultrafiltration Filter (Sartorius, Germany) MW cutoff: 10 KDa
• (a) Sample preparation: Prepare sample for each group in 1.5 mL microcentrifuge tube according to the experimental design, total volume 550 μL. In a standard ASMS experiment there are two groups: Protein plus (P+L+) and protein minus (P−L+). • (b) Transfer 50 μL from the 550 μL to a vial as R0 sample. Incubate the rest solution for 30 min at room temperature. Then transfer the 500 μL into an ultrafiltration filter tube and centrifuge at 12×10^3 rpm for ˜10 min, leave about 50 μL solution (otherwise adjust this time). • (c) Add incubation buffer to the ultrafiltration filter tube to about 500 μL. Stir gently and centrifuge mixtures as above, leave about 50 μL solution. • (d) Repeat the step c. Transfer the remaining 50 μL upper layer solution to a new vial as R^3 sample. Sample Extraction: Add 150 μL MeCN to denature the protein completely. Centrifuge at 12×10^3 rpm for 5 min. Transfer the supernatant into LC-MS auto sampler vials for LC-MS analysis (5 uL injection).
Waters Acquity UPLC system, Waters ACQUITY UPLC BEH C18 column (2.1×50 mm, 1.7 μM); Mobile phase A: 0.1% formic acid solution, B: MeCN; 0.3 mL/min, 5 μL injection, gradient elution (Table 5).
Waters Synapt G1 Q-TOF system, positive or negative ion scan modes; Capillary voltage: 3.0 kV; Method: MSE; Mass range: m/z=100-1000; Source temperature: 120° C.; Desolvation temperature: 400° C.; Collision voltage: 35 V; Sampling Cone: 35 V; Extraction Cone: 4.0 V; Cone Gas: 50 L/h; Desolvation Gas: 800 L/h.

Setting [2] is: Rheb-dependent in vitro kinase assay, read-out: IVK IC50.

Sequence of HA-GST-Rheb (GTP-γ-S loaded) activating mTORC1 (Q15382 1-181): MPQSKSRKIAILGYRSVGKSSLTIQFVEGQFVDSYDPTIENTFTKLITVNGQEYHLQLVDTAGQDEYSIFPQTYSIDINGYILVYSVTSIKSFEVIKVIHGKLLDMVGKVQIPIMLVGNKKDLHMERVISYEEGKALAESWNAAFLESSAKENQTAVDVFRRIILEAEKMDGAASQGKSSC
Sequence of Rheb (Q15382 1-169 limits assumed): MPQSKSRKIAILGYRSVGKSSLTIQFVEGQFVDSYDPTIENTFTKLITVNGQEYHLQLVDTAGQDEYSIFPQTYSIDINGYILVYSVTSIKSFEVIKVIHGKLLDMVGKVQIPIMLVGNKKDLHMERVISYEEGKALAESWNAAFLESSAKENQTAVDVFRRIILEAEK

Consider `OCc1cc2c(Sc3ccc(F)cc3)cc(Cl)cc2[nH]1` [I-153, (6-chloro-4-(4-fluorophenylthio)-1H-indol-2-yl)methanol], for which the half-maximal inhibitory concentration (IC50) in experiment [1] (setting [2]) lay within 10 to 100 µM. The “ASMS (R3/R0)” value at Rheb is “B (an affinity (R3/R0) between 100% and 20%)”.
As to `O=C(O)c1cc2c(Oc3ccccc3)cc(Cl)cc2[nH]1` [I-175, 6-chloro-4-phenoxy-1H-indole-2-carboxylic acid], the IC50 in experiment [1] (setting [2]) fell in the range of 100 to 300 µM. Further, at Rheb, the “ASMS (R3/R0)” value was “B (an affinity (R3/R0) between 100% and 20%)”.
As to `O=C(O)c1cc2c(SCc3ccc(Cl)cc3)cc(SCc3ccc(Cl)cc3)cc2[nH]1` [I-94, 4,6-bis(4-chlorobenzylthio)-1H-indole-2-carboxylic acid], in experiment [1] (setting [2]), the IC50 was < 10 µM. Also, the “ASMS (R3/R0)” value at Rheb is “B (an affinity (R3/R0) between 100% and 20%)”.
As to `CN(C)C(=O)c1ccc(Cn2c(C(=O)O)cc3c(C#N)cc(Sc4ccc(Cl)c(Cl)c4)cc32)cc1` [I-7, 4-cyano-6-(3,4-dichlorophenylthio)-1-(4-(dimethylcarbamoyl)benzyl)-1H-indole-2-carboxylic acid], the IC50 in experiment [1] (setting [2]) was < 10 µM. Moreover, at Rheb, the “ASMS (R3/R0)” value is “B (an affinity (R3/R0) between 100% and 20%)”.
For the compound `CN1CCC(NC(=O)c2ccc(Cn3c(C(=O)O)cc4c(Br)cc(Oc5ccccc5)cc43)cc2)C1` (stereo not drawn) [I-53], the IC50 in experiment [1] (setting [2]) is > 100 µM. Besides, at Rheb, the “ASMS (R3/R0)” value is “B (an affinity (R3/R0) between 100% and 20%)”.
As to “4-((6-chloro-4-(3,4-dichlorophenoxy)-1H-indol-1-yl)methyl)benzoic acid [I-146]”, the IC50 in experiment [1] (setting [2]) was < 10 µM. Further, the “ASMS (R3/R0)” value at Rheb is “B (an affinity (R3/R0) between 100% and 20%)”.
Regarding `CN1CCC(CCNC(=O)c2cc3c(Sc4ccc(Cl)cc4Cl)cc(Cl)c(Cl)c3[nH]2)CC1` [I-27], the IC50 in experiment [1] (setting [2]) is > 100 µM. Moreover, the “ASMS (R3/R0)” value on Rheb was “B (an affinity (R3/R0) between 100% and 20%)”.
For the compound `OCc1cc2c(Sc3ccc(OC(F)(F)F)cc3)cc(Cl)cc2[nH]1` [I-123, (6-chloro-4-(4-(trifluoromethoxy)phenylthio)-1H-indol-2-yl)methanol], the half-inhibitory concentration (IC50) in experiment [1] (setting [2]) was < 10 µM. For the same compound, at Rheb, the “ASMS (R3/R0)” value was “B (an affinity (R3/R0) between 100% and 20%)”.
Take `O=C(O)Cn1c(C(=O)O)cc2c(Oc3cc(Cl)ccc3Cl)cc(Cl)cc21` [I-162, 1-(Carboxymethyl)-6-chloro-4-(2,5-dichlorophenoxy)-1H-indole-2-carboxylic acid]: the IC50 in experiment [1] (setting [2]) was in the range of 100 to 300 µM. Further, the “ASMS (R3/R0)” value at Rheb was “B (an affinity (R3/R0) between 100% and 20%)”.
As to `CN1CCC(CNC(=O)c2cc3c(Br)cc(Sc4ccc5ccccc5c4)cc3n2Cc2ccc(C(=O)N(C)C)cc2)CC1` [I-23], in experiment [1] (setting [2]), the IC50 is > 100 µM. Moreover, at Rheb, the “ASMS (R3/R0)” value is “B (an affinity (R3/R0) between 100% and 20%)”.
Take `CC(O)c1cc2c(Oc3ccccc3)cc(Cl)cc2[nH]1` (stereo not drawn) [I-186, 1-(6-Chloro-4-phenoxy-1H-indol-2-yl)ethanol]: in experiment [1] (setting [2]), the IC50 is 10 to 100 µM. Also, at Rheb, the “ASMS (R3/R0)” value was “B (an affinity (R3/R0) between 100% and 20%)”.
For `OCc1cc2c(Sc3ccc(Cl)cc3)cc(Cl)cc2[nH]1` [I-187, (6-chloro-4-(4-chlorophenylthio)-1H-indol-2-yl)methanol], in experiment [1] (setting [2]), the concentration for half-maximal inhibition (IC50) is < 10 µM. For the same compound, the “ASMS (R3/R0)” value on Rheb is “B (an affinity (R3/R0) between 100% and 20%)”.
Turning to `O=C(O)c1ccc(Cn2c(C(=O)O)cc3c(Br)cc(Oc4ccccc4)cc32)cc1` [I-165, 4-bromo-1-(4-carboxybenzyl)-6-phenoxy-1H-indole-2-carboxylic acid], the IC50 in experiment [1] (setting [2]) was 10 to 100 µM. Also, at Rheb, the “ASMS (R3/R0)” value is “B (an affinity (R3/R0) between 100% and 20%)”.
`OCc1nc2cc(SCc3ccc(Cl)cc3)c(Cl)c(Cl)c2[nH]1` [I-356, (6,7-dichloro-5-(4-chlorobenzylthio)-1H-benzo[d]imidazol-2-yl)methanol]: in experiment [1] (setting [2]), the IC50 lay in the range of 10 to 100 µM. At Rheb, the “ASMS (R3/R0)” value was “A (an affinity (R3/R0)>100%)”.
“4-bromo-6-(3,4-dichlorophenylthio)-1-(4-((2-hydroxyethyl)(methyl)carbamoyl)benzyl)-1H-indole-2-carboxylic acid [I-51]”: in experiment [1] (setting [2]), the IC50 is < 10 µM. In addition, the “ASMS (R3/R0)” value on Rheb is “B (an affinity (R3/R0) between 100% and 20%)”.
For `O=S(=O)(c1cccnc1)n1ccc2c(Sc3ccc(Cl)cc3)cc(Cl)cc21` [I-107], the half-inhibitory concentration (IC50) in experiment [1] (setting [2]) was > 100 µM. On Rheb, the “ASMS (R3/R0)” value is recorded as “C (an affinity (R3/R0)<20%)”.
For the compound `CN1CCC(NC(=O)c2cc3c(Sc4ccc(Cl)cc4)cc(Cl)cc3[nH]2)CC1` [I-80], the IC50 in experiment [1] (setting [2]) was > 100 µM. Further, the “ASMS (R3/R0)” value at Rheb is “B (an affinity (R3/R0) between 100% and 20%)”.
On to `CN1CCC[C@H]1CNC(=O)c1ccc(-c2nc3cc(Cl)c(Cl)cc3[nH]2)cc1` [I-336], for which the IC50 in experiment [1] (setting [2]) was > 100 µM. Also, the “ASMS (R3/R0)” value at Rheb was “B (an affinity (R3/R0) between 100% and 20%)”.
`OCc1cc2c(Sc3cccc(OC(F)(F)F)c3)cc(Cl)cc2[nH]1` [I-122, (6-chloro-4-(3-(trifluoromethoxy)phenylthio)-1H-indol-2-yl)methanol]: the IC50 in experiment [1] (setting [2]) is < 10 µM. Moreover, the “ASMS (R3/R0)” value on Rheb was “B (an affinity (R3/R0) between 100% and 20%)”.
Regarding `CN1CCCN(C(=O)c2cc3c(Sc4ccc(Cl)cc4)cc(Cl)cc3[nH]2)CC1` [I-83], the IC50 in experiment [1] (setting [2]) was > 100 µM. For the same compound, at Rheb, the “ASMS (R3/R0)” value is “B (an affinity (R3/R0) between 100% and 20%)”.
`O=C(O)c1cc2c(Sc3cccc(OC(F)(F)F)c3)cc(Cl)cc2[nH]1` [I-126, 6-chloro-4-(3-(trifluoromethoxy)phenylthio)-1H-indole-2-carboxylic acid]: the IC50 in experiment [1] (setting [2]) fell in the range of 10 to 100 µM. Further, the “ASMS (R3/R0)” value at Rheb was “B (an affinity (R3/R0) between 100% and 20%)”.
As to `OCc1cc2c(Sc3ccc4ccccc4c3)cc(Cl)cc2[nH]1` [I-134, (6-chloro-4-(naphthalen-2-ylthio)-1H-indol-2-yl)methanol], in experiment [1] (setting [2]), the IC50 lay in the range of 10 to 100 µM. Further, the “ASMS (R3/R0)” value on Rheb was “B (an affinity (R3/R0) between 100% and 20%)”.
For the compound `O=C(O)c1cc2c(Cl)cc(Sc3ccc(Cl)c(Cl)c3)cc2[nH]1` [I-100, 4-chloro-6-(3,4-dichlorophenylthio)-1H-indole-2-carboxylic acid], the IC50 in experiment [1] (setting [2]) was < 10 µM. The “ASMS (R3/R0)” value at Rheb was “B (an affinity (R3/R0) between 100% and 20%)”.
For `OCc1cc2c(Oc3ccccc3)c(Cl)ccc2[nH]1` [I-293, (5-chloro-4-phenoxy-1H-indol-2-yl)methanol], the IC50 in experiment [1] (LanthaScreen variation, Terbium labeled T46p4E-BP1 specific antibody, read-out: IC50 in the Rheb-IVK) is ~83.8 µM; in experiment [1] (setting [2]) it was 100 to 300 µM. Moreover, the “inhibition of mTORC1 activity in the Rheb-IVK” value in experiment [1] (Western blot variation, anti 4E-BP1 and anti T37/46p4E-BP1) is reported as “capable of inhibiting mTORC1 activity”. On Rheb, the “ASMS (R3/R0)” value was “C (an affinity (R3/R0)<20%)”.
For the compound `O=C(O)c1nc2c(OCc3ccc(Cl)cc3)c(Cl)c(Cl)cc2[nH]1` [I-333], the IC50 in experiment [1] (setting [2]) was 10 to 100 µM. Moreover, the “ASMS (R3/R0)” value on Rheb is given as “A (an affinity (R3/R0)>100%)”.
Consider `CC(C)(C)OC(=O)N1CCN(C(=O)c2ccc(Cn3c(C(=O)O)cc4c(Br)cc(Oc5ccccc5)cc43)cc2)CC1` [I-62], for which, in experiment [1] (setting [2]), the IC50 was > 100 µM. Also, the “ASMS (R3/R0)” value on Rheb was “B (an affinity (R3/R0) between 100% and 20%)”.
On to `CN(C)C(=O)c1ccc(Cn2c(C(=O)O)cc3c(Br)cc(SC4CCOCC4)cc32)cc1` [I-12, 4-bromo-1-(4-(dimethylcarbamoyl)benzyl)-6-(tetrahydro-2H-pyran-4-ylthio)-1H-indole-2-carboxylic acid], for which the IC50 in experiment [1] (setting [2]) lay within 10 to 100 µM. Besides, on Rheb, the “ASMS (R3/R0)” value is reported as “C (an affinity (R3/R0)<20%)”.
Turning to `OCc1cc2c(Oc3ccc(C4CCCCC4)cc3)cc(Cl)cc2[nH]1` [I-127, (6-chloro-4-(4-cyclohexylphenoxy)-1H-indol-2-yl)methanol], the IC50 in experiment [1] (setting [2]) was < 10 µM. Besides, the “ASMS (R3/R0)” value on Rheb was “B (an affinity (R3/R0) between 100% and 20%)”.
As for `O=C(O)c1cc2c(Sc3ccc(Cl)cc3Cl)cc(Cl)cc2n1Cc1ccc(Br)cc1` [I-103], in experiment [1] (setting [2]), the IC50 is > 100 µM. Besides, the “ASMS (R3/R0)” value at Rheb is “B (an affinity (R3/R0) between 100% and 20%)”.

(Values after patent US11339144B2 (Navitor Pharmaceuticals, Inc., priority 2017, dated 2022).)
